Source: ChEMBL document CHEMBL1909046, “DrugMatrix in vitro pharmacology data”

Tests used:
[1] = target: T1, Nitric oxide synthase, inducible (Mus musculus, UniProt P29477); parameters: species or system Escherichia coli;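 note: inhibition of iNOS enzyme activity measured with L-arginine as substrate; in other assays of this panel Not Active means under 50% inhibition at 10 µM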
T1 sequence (P29477 whole entry): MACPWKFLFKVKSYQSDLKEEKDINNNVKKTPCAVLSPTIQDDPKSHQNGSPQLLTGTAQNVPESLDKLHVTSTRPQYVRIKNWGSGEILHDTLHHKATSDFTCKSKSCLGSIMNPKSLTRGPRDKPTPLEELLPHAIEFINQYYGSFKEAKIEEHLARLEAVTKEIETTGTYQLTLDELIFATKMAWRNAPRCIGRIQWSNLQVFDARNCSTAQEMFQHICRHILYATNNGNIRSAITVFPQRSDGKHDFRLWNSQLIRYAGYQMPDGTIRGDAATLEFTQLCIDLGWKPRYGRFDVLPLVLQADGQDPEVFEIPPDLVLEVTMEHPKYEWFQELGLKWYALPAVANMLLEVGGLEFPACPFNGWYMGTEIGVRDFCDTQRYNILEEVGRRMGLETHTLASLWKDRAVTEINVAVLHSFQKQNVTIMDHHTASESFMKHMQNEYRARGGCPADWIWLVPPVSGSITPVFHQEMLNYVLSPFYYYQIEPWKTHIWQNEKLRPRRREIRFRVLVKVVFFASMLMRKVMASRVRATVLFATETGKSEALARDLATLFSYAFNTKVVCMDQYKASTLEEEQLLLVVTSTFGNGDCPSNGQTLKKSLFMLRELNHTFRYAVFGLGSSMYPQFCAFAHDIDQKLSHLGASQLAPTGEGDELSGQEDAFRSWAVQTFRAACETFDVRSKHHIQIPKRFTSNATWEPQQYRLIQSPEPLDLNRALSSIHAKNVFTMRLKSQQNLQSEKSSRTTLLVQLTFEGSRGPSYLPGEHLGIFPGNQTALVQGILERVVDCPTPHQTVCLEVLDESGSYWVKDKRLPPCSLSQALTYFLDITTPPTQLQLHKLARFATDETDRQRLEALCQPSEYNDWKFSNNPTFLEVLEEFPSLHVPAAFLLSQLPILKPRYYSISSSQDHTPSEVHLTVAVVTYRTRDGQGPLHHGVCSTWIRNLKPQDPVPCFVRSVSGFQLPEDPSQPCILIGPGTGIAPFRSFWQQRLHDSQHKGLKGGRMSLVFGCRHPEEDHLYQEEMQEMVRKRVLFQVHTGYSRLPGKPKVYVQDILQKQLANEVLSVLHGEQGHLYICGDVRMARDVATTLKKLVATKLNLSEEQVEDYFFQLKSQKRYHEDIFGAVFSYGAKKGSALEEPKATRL

[2] = DRUGMATRIX: Phosphodiesterase PDE3 enzyme inhibition (substrate: [3H]cAMP + cAMP); format: tissue-based, Homo sapiens; conditions: platelet; Not Active = under 50% inhibition at 10 µM
[3] = target: T2, Cathepsin G (Homo sapiens, UniProt P08311); format: tissue-based; conditions: neutrophil;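 note: inhibition of Cathepsin G enzyme activity, tested on an AMC-conjugated peptide substrate; in other assays of this panel Not Active means under 50% inhibition at 10 µM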
T2 sequence (P08311 whole entry): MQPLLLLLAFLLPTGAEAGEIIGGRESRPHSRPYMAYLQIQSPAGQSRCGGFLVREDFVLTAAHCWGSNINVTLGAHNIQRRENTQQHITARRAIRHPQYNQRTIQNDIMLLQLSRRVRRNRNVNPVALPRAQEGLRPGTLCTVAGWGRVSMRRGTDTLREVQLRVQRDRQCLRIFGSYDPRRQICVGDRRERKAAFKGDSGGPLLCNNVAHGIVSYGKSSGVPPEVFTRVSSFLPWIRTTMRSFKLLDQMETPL

[4] = target: Melanocortin receptor 4 (Homo sapiens, UniProt P32245); format: cell membranes, Membrane; conditions: hek293; note: in other assays of this panel Not Active means under 50% inhibition at 10 µM
Sequence of Melanocortin receptor 4 (P32245 whole entry): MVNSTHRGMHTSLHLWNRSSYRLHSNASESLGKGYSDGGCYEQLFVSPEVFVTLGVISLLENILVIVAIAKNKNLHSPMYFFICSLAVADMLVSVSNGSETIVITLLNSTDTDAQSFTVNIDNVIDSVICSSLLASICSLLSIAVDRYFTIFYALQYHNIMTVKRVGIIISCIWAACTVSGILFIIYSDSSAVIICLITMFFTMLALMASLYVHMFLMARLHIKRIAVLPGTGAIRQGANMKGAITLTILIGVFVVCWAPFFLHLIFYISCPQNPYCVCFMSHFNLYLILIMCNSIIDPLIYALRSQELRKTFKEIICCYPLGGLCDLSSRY

[5] = DRUGMATRIX: Interleukin IL-1 radioligand binding (ligand: [125I] interleukin 1beta); format: cell membranes, Membrane; conditions: nih3t3; Not Active = under 50% inhibition at 10 µM
[6] = target: Aldo-keto reductase family 1 member B1 (Rattus norvegicus, UniProt P07943); format: tissue-based, Lens of camera-type eye;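 note: inhibition of aldose reductase enzyme activity, measured with DL-glyceraldehyde as the substrate; in other assays of this panel Not Active means under 50% inhibition at 10 µM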
[7] = target: T3, Alpha-2A adrenergic receptor (Homo sapiens, UniProt P08913); format: cell membranes, Sf9, Membrane; note: in other assays of this panel Not Active means under 50% inhibition at 10 µM
T3 sequence (P08913 whole entry): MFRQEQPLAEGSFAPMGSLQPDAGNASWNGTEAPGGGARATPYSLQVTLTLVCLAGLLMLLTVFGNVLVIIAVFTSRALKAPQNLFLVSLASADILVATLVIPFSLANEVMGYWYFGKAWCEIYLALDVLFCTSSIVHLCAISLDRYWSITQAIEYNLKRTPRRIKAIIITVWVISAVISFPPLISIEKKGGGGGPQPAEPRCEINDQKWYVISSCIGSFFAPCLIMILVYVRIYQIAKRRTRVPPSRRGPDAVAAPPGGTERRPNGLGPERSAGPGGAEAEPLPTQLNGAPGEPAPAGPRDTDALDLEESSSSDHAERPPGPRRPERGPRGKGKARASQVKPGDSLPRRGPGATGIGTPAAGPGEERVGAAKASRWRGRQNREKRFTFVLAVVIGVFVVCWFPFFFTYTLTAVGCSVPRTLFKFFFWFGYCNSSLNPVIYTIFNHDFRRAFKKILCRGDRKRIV

[8] = target: T4, 5-hydroxytryptamine receptor 1A (Rattus norvegicus, UniProt P19327); format: cell membranes, CHO-K1, Membrane; conditions: cho-k1; note: in other assays of this panel Not Active means under 50% inhibition at 10 µM
T4 sequence (P19327 whole entry): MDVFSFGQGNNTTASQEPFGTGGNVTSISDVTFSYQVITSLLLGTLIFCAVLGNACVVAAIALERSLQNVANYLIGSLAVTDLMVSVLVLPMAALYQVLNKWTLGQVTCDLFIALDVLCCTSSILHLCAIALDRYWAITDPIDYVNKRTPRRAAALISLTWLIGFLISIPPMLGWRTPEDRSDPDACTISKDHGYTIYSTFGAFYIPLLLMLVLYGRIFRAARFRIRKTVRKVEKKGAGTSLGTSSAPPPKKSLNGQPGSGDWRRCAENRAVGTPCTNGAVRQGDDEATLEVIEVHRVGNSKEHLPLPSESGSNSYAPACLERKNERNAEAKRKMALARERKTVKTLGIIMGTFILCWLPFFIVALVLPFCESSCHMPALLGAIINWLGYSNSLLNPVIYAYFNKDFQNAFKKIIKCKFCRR

[9] = target: Vascular endothelial growth factor receptor 1 (Homo sapiens, UniProt P17948); format: cell-based; conditions: huvec; note: in other assays of this panel Not Active means under 50% inhibition at 10 µM
Sequence of Vascular endothelial growth factor receptor 1 (P17948 whole entry): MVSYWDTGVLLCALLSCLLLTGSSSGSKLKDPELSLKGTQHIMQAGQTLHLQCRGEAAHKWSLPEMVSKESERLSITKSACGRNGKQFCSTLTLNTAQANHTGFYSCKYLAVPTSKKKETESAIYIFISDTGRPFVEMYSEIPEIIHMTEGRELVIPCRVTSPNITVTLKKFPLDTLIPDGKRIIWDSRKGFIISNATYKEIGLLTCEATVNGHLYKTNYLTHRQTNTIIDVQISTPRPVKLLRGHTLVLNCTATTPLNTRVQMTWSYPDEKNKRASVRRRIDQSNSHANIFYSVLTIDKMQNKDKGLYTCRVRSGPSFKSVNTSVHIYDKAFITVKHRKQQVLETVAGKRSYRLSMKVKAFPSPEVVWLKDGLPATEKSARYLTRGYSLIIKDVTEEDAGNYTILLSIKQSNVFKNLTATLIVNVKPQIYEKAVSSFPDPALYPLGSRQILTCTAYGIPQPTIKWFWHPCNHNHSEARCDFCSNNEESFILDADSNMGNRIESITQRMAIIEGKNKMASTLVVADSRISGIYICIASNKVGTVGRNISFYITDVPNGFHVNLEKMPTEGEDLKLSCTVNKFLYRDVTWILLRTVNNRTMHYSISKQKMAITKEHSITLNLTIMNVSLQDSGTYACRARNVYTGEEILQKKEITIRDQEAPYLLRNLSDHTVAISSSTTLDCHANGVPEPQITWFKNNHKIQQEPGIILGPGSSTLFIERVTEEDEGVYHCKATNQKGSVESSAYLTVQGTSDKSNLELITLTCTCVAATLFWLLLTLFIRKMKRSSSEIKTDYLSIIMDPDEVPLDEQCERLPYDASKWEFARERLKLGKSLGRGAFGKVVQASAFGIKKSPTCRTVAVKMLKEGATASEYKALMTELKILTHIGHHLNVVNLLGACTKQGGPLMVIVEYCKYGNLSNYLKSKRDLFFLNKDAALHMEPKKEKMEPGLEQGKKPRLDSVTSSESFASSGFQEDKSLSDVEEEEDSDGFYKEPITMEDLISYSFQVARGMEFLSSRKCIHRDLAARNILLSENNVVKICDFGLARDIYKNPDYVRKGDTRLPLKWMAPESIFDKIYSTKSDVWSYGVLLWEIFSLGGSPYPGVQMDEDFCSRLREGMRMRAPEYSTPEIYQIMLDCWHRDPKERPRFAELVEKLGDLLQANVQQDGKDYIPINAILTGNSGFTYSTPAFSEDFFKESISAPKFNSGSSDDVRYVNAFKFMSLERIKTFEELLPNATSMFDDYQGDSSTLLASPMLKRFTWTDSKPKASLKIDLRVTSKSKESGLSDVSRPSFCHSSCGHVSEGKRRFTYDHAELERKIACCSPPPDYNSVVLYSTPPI

[10] = DRUGMATRIX: Potassium Channel [KATP] radioligand binding (ligand: [3H] Glyburide); format: cell membranes, Membrane; conditions: hit-t15; Not Active = under 50% inhibition at 10 µM
[11] = DRUGMATRIX: GABAA, Chloride Channel, TBOB radioligand binding (ligand: [3H] TBOB); format: cell membranes, Rattus norvegicus, Wistar, Cerebral cortex, Membrane; conditions: Not Active = under 50% inhibition at 10 µM

Compound	IC50 [1]	IC50 [2]	Ki [2]	IC50 [3]	IC50 [4]	IC50 [5]	Ki [5]	IC50 [6]	IC50 ([7]; sf9)	IC50 [8]	IC50 [9]	IC50 [10]	Ki [10]	IC50 [11]	Ki [11]	IC50 ([7]; read-out: IC50) [µM]	Ki ([7]; read-out: Ki) [µM]	Ki [1]
CCC[C@@H]1C[C@@H](C(=O)N[C@@H]([C@H]2O[C@H](SC)[C@H](O)[C@@H](O)[C@H]2O)[C@@H](C)O)N(C)C1 [LINCOMYCIN]	Not Active	Not Active	Not Active	Not Active	Not Active	Not Active	Not Active	Not Active	Not Active	Not Active	Not Active	Not Active	Not Active	Not Active	Not Active	–	–	–
COS(C)(=O)=O [METHANESULFONIC ACID METHYL ESTER]	Not Active	Not Active	Not Active	Not Active	Not Active	Not Active	Not Active	Not Active	Not Active	Not Active	Not Active	Not Active	Not Active	Not Active	Not Active	–	–	–
COC(=O)c1ccc(O)cc1 [METHYLPARABEN]	Not Active	Not Active	Not Active	Not Active	Not Active	Not Active	Not Active	Not Active	Not Active	Not Active	Not Active	Not Active	Not Active	Not Active	Not Active	–	–	–
C[C@](N)(Cc1ccc(O)cc1)C(=O)O [METYROSINE]	Not Active	Not Active	Not Active	Not Active	Not Active	Not Active	Not Active	Not Active	Not Active	Not Active	Not Active	Not Active	Not Active	Not Active	Not Active	–	–	–
Clc1ccc(C(c2ccccc2Cl)C(Cl)Cl)cc1 (stereo unspecified) [MITOTANE]	Not Active	Not Active	Not Active	Not Active	Not Active	Not Active	Not Active	Not Active	–	Not Active	Not Active	Not Active	Not Active	Not Active	Not Active	7.35	2.75	–
O=C1c2c(O)ccc(O)c2C(=O)c2c(NCCNCCO)ccc(NCCNCCO)c21 [MITOXANTRONE]	–	Not Active	Not Active	Not Active	Not Active	Not Active	Not Active	Not Active	Not Active	Not Active	Not Active	Not Active	Not Active	Not Active	Not Active	–	–	Not Active
COc1c(C)c2c(c(O)c1C/C=C(\C)CCC(=O)OCCN1CCOCC1)C(=O)OC2 [MYCOPHENOLATE MOFETIL]	Not Active	Not Active	Not Active	Not Active	Not Active	Not Active	Not Active	Not Active	Not Active	Not Active	Not Active	Not Active	Not Active	Not Active	Not Active	–	–	–
COC(=O)C1=C(C)NC(C)=C(C(=O)OC)C1c1ccccc1[N+](=O)[O-] [NIFEDIPINE]	Not Active	Not Active	Not Active	Not Active	Not Active	Not Active	Not Active	Not Active	Not Active	Not Active	Not Active	Not Active	Not Active	Not Active	Not Active	–	–	–
NNc1ccccc1 [PHENYLHYDRAZINE]	Not Active	Not Active	Not Active	Not Active	Not Active	Not Active	Not Active	Not Active	Not Active	Not Active	Not Active	Not Active	Not Active	Not Active	Not Active	–	–	–
